How the values were obtained:
HepG2 cells [1] = assay: MTT cell viability assay; format: cell-based, human; conditions: 24 h
Procedure: HepG2 and HepG2/CDDP cells were plated in 96-well plates at a density of 5000 cells in 200 μl medium per well and incubated overnight. The cells were treated with […] and/or CDDP for 24 h, 48 or 72 h. The cell viability of HepG2 and HepG2/CDDP cells was measured by MTT assay as described previously.

HepG2/CDDP cells [2] = assay: MTT cell viability assay; format: cell-based, human
Procedure: Human hepatocellular carcinoma HepG2 cells were purchased from Cell Bank of Shanghai Institute of Biochemistry and Cell Biology, Chinese Academy of Sciences (Shanghai, China). mtrDNA sequence analysis was done by the cell bank to confirm the species and cells were tested free from mycoplasma. CDDP-selected drug-resistant HepG2/CDDP cells were derived from HepG2 cells by utilizing serial passage in the presence of increasing CDDP concentrations. Briefly, cells were treated with CDDP (1 μM) for 72 h. The media and dead cells were removed, and cells were allowed to recover for a further 72 h and then were treated with a higher concentration of CDDP. This development period was carried out for approximately 6 months, and finally, we obtained the HepG2/CDDP cells. HepG2/CDDP cells were then continuously maintained in the presence of 20 μM CDDP for a further 3 months to maintain stability. All cells were cultured in DMEM media containing 10% fetal bovine serum and incubated with 100 U/ml penicillin and 100 μg/ml streptomycin (Thermo) at 37 °C under an atmosphere of 95% air and 5% CO2.
HepG2 and HepG2/CDDP cells were plated in 96-well plates at a density of 5000 cells in 200 μl medium per well and incubated overnight. The cells were treated with calyxin Y and/or CDDP for 24 h, 48 or 72 h. The cell viability of HepG2 and HepG2/CDDP cells was measured by MTT assay as described previously.

[3] = Hematological parameters of nude mice bearing HepG2/CDDP xenograft; format: in vivo, BALB/c nu/nu mice; conditions: calyxin Y 20 mg/kg i.p. every other day and/or CDDP 4 mg/kg i.p. once per week, 19 days; mean ± S.D., n = 3
Procedure: (§1) All animal procedures were performed according to comply with the ARRIVE guidelines, the U.K. Animals (Scientific Procedures) Act, 1986 and associated guidelines. The protocol was approved by the Institutional Animal Care and Use Committee at China Pharmaceutical University. Four-week-old BALB/c nu/nu mice (18-22 g) purchased from Shanghai Laboratory Animal Center of Chinese Academy of Sciences (Shanghai, China) were used for in vivo experiments. Animals were housed at a constant room temperature with a 12 h:12 h light/dark cycle and were provided a standard rodent diet and water. HepG2/CDDP cells were harvested and injected subcutaneously into the right flank (1 × 10^7 cells in 150 μl of cold PBS). […] (1) control group, mice were injected intraperitoneally (i.p.) with 10% DMSO + 90% normal saline (n = 6); (2) […] group: mice were injected i.p. with 20 mg/kg […] every other day (n = 6); (3) CDDP group: mice were injected i.p. with 4 mg/kg CDDP once per week (n = 6); (4) […] + CDDP group: mice were injected i.p. with 20 mg/kg […] every other day and 4 mg/kg CDDP once per week (n = 6). The tumor volume was determined by measuring length (l) and width (w) and calculating volume (V = 0.5 × l × w^2) at the indicated time points. At the end of treatment, the animals were sacrificed, and the tumors were removed and weighed for use in histology and protein expression studies. Using a standard saphenous vein blood collection technique, blood was drawn for hematologic and serum biochemistry analyses.

[4] = Hematological biochemical parameters of nude mice bearing HepG2/CDDP xenograft; format: in vivo, BALB/c nu/nu mice; conditions: calyxin Y 20 mg/kg i.p. every other day and/or CDDP 4 mg/kg i.p. once per week, 19 days; mean ± S.D., n = 3
Procedure: as §1

eEF2K in HepG2 cells = conditions: calyxin Y 5, 10, 20 µM, 24 h
Procedure: (§2) HepG2 and HepG2/CDDP cells were lysed in western blotting lysis buffer and centrifuged at 12000 g for 10 min. The procedures for Western blotting were described previously.

[5] = test system: eEF2K in HepG2/CDDP cells; conditions: calyxin Y 5, 10, 20 µM, 24 h
Procedure: as §2

[6] = test system: eEF2K mRNA in HepG2 cells; conditions: calyxin Y 5, 10, 20 µM, 24 h
Procedure: (§3) Total RNA samples from HepG2 and HepG2/CDDP cells were extracted using RNAiso Plus reagent following the manufacturer’s protocols. RNA (1 μg) was reverse-transcribed using a ReverTra Ace qPCR RT-Kit (Toyobo Life Science, Osaka, Japan) in a MyCycler PCR system (BioRad Laboratories, Hercules, CA). SYBR Green PCR Master Mix was purchased from Toyobo Life Science. The 2^−ΔΔCT cycle threshold method was used for the calculation of relative differences in mRNA abundance with a LightCycler 480 qPCR System (Roche Molecular Biochemicals, Mannheim, Germany). Data were normalized to the expression of β-Actin. The results of qRT-PCR were expressed as fold-changes. The normalized value of the target mRNA of the control group is arbitrarily presented as 100. The pairs of primer for PCR were listed below: • eEF2K: (sense) 5′-[…]-3′; • eEF2K: (antisense) 5′-[…]-3′. • β-Actin: (sense) 5′-[…] CAATG-3′; • β-Actin: (antisense) 5′-[…]-3′.

[7] = test system: eEF2K mRNA in HepG2/CDDP cells; conditions: calyxin Y 5, 10, 20 µM, 24 h
Procedure: as §3

HepG2 cells [8] = assay: Annexin V/7-AAD staining assay (flow cytometry); format: cell-based, human; conditions: CDDP 10 µM with or without calyxin Y 20 µM, 24 h
Procedure: HepG2 and HepG2/CDDP cells were plated on 6-well plates and incubated overnight. Next, the cells were treated with […] and/or CDDP for 24 h. Cells in 200 μl of binding buffer were stained with 5 μl of Annexin V-Alexa Fluor 647 ([…] Biotech Co., Ltd., China) and 5 μl of 7-AAD at room temperature for 15 min. The cells were then analyzed by flow cytometry with a BD Accuri C6 flow cytometer (Becton & Dickinson Company, Franklin Lakes, NJ, USA). The cells undergoing apoptosis are Annexin V positive.

HepG2/CDDP cells [9] = assay: Western blot of cleaved caspase-3/7/PARP; format: cell-based, human; conditions: CDDP 10 µM with or without calyxin Y 20 µM, 24 h
Description: The procedures for Western blotting were described previously.

Hematocrit [3] [%]	Hemoglobin [3] [g/L]	Lymphocytes [3]	Mean corpuscular hemoglobin [3] [pg]	Mean corpuscular volume [3] [fL]	Platelet counts [3]	Red blood cells [3]	White blood cells [3]	Alanine aminotransferase [4] [U/L]	Alkaline phosphatase [4] [U/L]	Aspartate aminotransferase [4] [U/L]	Compound	further results
44.1 ± 1.4	138.4 ± 7.0	18.5 ± 1.8 10^9/L	14.5 ± 0.13	47.3 ± 3.3	588.5 ± 80.5 10^9/L	11.0 ± 0.27 10^12/L	15.2 ± 2.2 10^9/L	37.5 ± 1.4	115.4 ± 2.7	129.3 ± 3.5	Calyxin Y	cell viability (HepG2 cells [1]; calyxin Y 10, 20, 30, 40 µM): concentration-dependent manner; cell viability (HepG2/CDDP cells [2]; HepG2/CDDP cells, calyxin Y 10, 20, 30, 40 µM, 24 h): inhibited the viability of HepG2/CDDP cells as much as it did that of HepG2 cells in a concentration-dependent manner; eEF2K expression (eEF2K in HepG2 cells): reduced eEF2K expression in a dose-dependent manner; eEF2K expression [5]: reduced eEF2K expression in a dose-dependent manner; eEF2K mRNA levels [6]: not significantly changed; eEF2K mRNA levels [7]: not significantly changed
44.3 ± 2.8	126.3 ± 4.7	8.9 ± 1.9 10^9/L	13.4 ± 0.29	47.7 ± 3.5	562.1 ± 19.2 10^9/L	9.6 ± 0.67 10^12/L	9.9 ± 0.39 10^9/L	40.2 ± 1.2	125.4 ± 0.91	158.5 ± 5.1	[NH2][Pt]([NH2])([Cl])[Cl] [CDDP, cisplatin]	IC50 (HepG2 cells [1]; MTT): 16.7 µM; IC50 (HepG2/CDDP cells [2]; HepG2/CDDP cells, 24 h, MTT): 95.4 µM; resistance index (HepG2/CDDP cells [2]; HepG2/CDDP vs HepG2, IC50 at 24 h): ~6 fold; apoptosis (AV+ cells) (HepG2 cells [8]): 31%; cleavage of caspase-7, caspase-3 and PARP (HepG2/CDDP cells [9]): did not cause the cleavage

Reference: publication PMC5642580, “Calyxin Y sensitizes cisplatin-sensitive and resistant hepatocellular carcinoma cells to cisplatin through apoptotic and autophagic cell death via SCF βTrCP-mediated eEF2K degradation” (Oncotarget, 2017)
